Bridge positions count the residues as written; N and C are the ends. Square brackets hold non-standard residues; d marks the D form. Peptide text beside a SMILES is read from it.
target: T1, human SSTR-5 (Homo sapiens, UniProt P35346); test: Human SSTR-5 binding assay ([125I-Tyr11]somatostatin-14 displacement, membranes of transfected CHO-K1 cells); conditions: ratio greater than one = more selective for SSTR-5 than for SSTR-2
T1 construct: expressed in transfected cells; host or cells: CHO-K1
Protocol: (2) Human SSTR-5 Binding Assay
CHO-K1 cells were transfected with the human SSTR-5 cDNA, described in Yamada, et al., Biochem Biophys. Res. Commun., 195-844 (1993) using standard techniques known in the molecular biological art. See, e.g., Patel, et al., Biochem. Biophys. Res. Comm. 198:605 (1994). Crude membranes were prepared by homogenization of the human SSTR-5 transfected CHO-K1 cells in 20 ml of ice-cold 50 mM Tris-HCl with a POLYTRON™ homogenizer (setting 6, 15 sec). Buffer was added to obtain a final volume of 40 ml, and the homogenate was centrifuged in a SORVAL™ SS-34 rotor at 39,000 g for 10 min at 0-4° C. The resulting supernatant was decanted and discarded. The pellet was rehomogenized in ice-cold buffer, diluted, and centrifuged as before. The final pellet was resuspended in the 10 mM Tris HCl and held on ice for the receptor binding assay.
The final assay volume was 0.3 ml. The incubations were terminated by rapid filtration through GF/C filters (pre-soaked in 0.3% polyethylenimine for 30 min) using a Brandel filtration manifold. Each tube and filter was then washed three times with 5 ml aliquots of ice-cold buffer.

T1 sequence (P35346 whole entry): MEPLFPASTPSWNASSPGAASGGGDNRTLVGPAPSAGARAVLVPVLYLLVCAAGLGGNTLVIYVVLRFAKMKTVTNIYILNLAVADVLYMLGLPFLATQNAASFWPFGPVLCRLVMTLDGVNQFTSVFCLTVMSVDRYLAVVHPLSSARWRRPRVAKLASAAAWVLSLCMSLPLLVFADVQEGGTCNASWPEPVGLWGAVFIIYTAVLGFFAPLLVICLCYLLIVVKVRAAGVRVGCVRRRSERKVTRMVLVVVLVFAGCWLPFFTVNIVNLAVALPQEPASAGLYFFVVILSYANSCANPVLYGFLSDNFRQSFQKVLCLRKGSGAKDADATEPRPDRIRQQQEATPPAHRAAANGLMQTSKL

Compound	SSTR-2/SSTR-5 (ratio of the Ki's for human SSTR-2 and human SSTR-5)
C[C@@H](O)[C@@H]1NC(=O)[C@H](CCCCN)NC(=O)[C@@H](Cc2c[nH]c3ccccc23)NC(=O)[C@H](Cc2ccccc2)NC(=O)[C@H](Cc2ccccc2)NC(=O)[C@H](N)CSSC[C@@H](C(N)=O)NC(=O)[C@H](Cc2ccccc2)NC1=O [Analog II, H2 -c[D-Cys-Phe-Phe-D-Trp-Lys-Thr-Phe-Cys] -NH2] (H-[dC]FF[dW]KTFC-NH2; disulfide 1-8)	4.94
NCCCC[C@@H]1NC(=O)[C@@H](Cc2c[nH]c3ccccc23)NC(=O)[C@H](Cc2c[nH]c3ccccc23)NC(=O)[C@H](Cc2ccccc2)NC(=O)[C@@H](N)CSSC[C@@H](C(N)=O)NC(=O)[C@H](Cc2ccccc2)NC(=O)[C@H](CO)NC1=O [Analog III, H2 -c[Cys-Phe-Trp-D-Trp-Lys-Ser-Phe-Cys] -NH2] (H-CFW[dW]KSFC-NH2; disulfide 1-8)	12.1
NCCCC[C@@H]1NC(=O)[C@@H](Cc2c[nH]c3ccccc23)NC(=O)[C@H](Cc2ccccc2)NC(=O)[C@H](Cc2ccccc2)NC(=O)[C@@H](N)CSSC[C@@H](C(N)=O)NC(=O)[C@H](Cc2ccccc2)NC(=O)[C@H](CO)NC1=O [Analog IV, H2 -c[Cys-Phe-Phe-D-Trp-Lys-Ser-Phe-Cys] -NH2] (H-CFF[dW]KSFC-NH2; disulfide 1-8)	20.8
H2 -c[Cys-Asn-Phe-Phe-D-Trp-Lys-Thr-Phe-Cys]-NH2 [Analog V]	53.1
H2 -c[Cys-Phe-Phe-D-Trp-Lys-Thr-Phe-Cys] -NH2 [Analog I]	40.2

From US6001801A, “Cyclic peptide analogs of somatostatin” (Biomeasure, Inc., priority 1998, dated 1999)
